Format in all cases: cell-based
Experiment [1] concerns Klebsiella pneumoniae UC 57 (KP). Briefly: Dip disk (disk-diffusion) assay, disks loaded with 0.05 ml. As to conditions: 0.05 ml per disk; for Growth Inhibition zone, KP / zone of inhibition at 0.1 µg/mL: 0.1 mcg/ml; for zone of inhibition at 0.1 µg/mL / zone of inhibition at 1 µg/mL: Klebsiella pneumoniae, UC57, read-out: Growth Inhibition zone, KP; for zone of inhibition at 1 µg/mL: 1.0 mcg/ml. As for the experimental part:
The effectiveness of the subject compounds on bacteria were obtained by performing a dip disk assay. The antibacterial activity of the compounds was determined by the disk-diffusion method. […] They were then applied to the surface of microorganism-seeded agar assay trays, which contained the bacterial strain Pseudomonas aeruginosa UC 95 (PA), Escherichia coli UC 51 (EC), Klebsiella pneumoniae UC 57 (KP), or Staphylococcus aureus UC 80 (SA). The assay trays were incubated overnight under aerobic condition to allow for the growth of the organisms. Zones of growth inhibition due to the action of the antibiotic were then measured to the nearest millimeter. […]
A general note: A growth-free zone around the sample is the usual read-out of agar diffusion tests.

Experiment [2] concerns Escherichia coli UC 51 (EC). Briefly: Dipped disk (disk-diffusion) assay, disks loaded with 0.10 ml. Conditions: 0.10 ml per disk. As for the experimental part:
(§1) The effectiveness of the subject compounds on some bacteria were obtained by performing a dipped disk assay. The antibacterial activity of the compounds is determined by the disk-diffusion method. […] They were then applied to the surface of microorganism-seeded agar assay trays, which contained the bacterial strain Pseudomonas aeruginosa UC 95 )PA), Escherichia coli UC 51 (EC) or Staphylococcus aureus UC 80 (SA). The assay trays were incubated overnight under aerobic condition to allow for the growth of the organisms. Zones of growth inhibition due to the action of the antibiotic were then measured to the nearest millimeter.

Experiment [3] has as its system Gram-positive and Gram-negative bacteria. Briefly: Dipped disk assay, overall antibacterial activity (Formula IB). As for the experimental part:
The effectiveness of the subject compounds on some bacteria were obtained by performing a dipped disk assay. The antibacterial activity of the compounds is determined by the disk-diffusion method. Paper disks (12.7 mm) were loaded with 0.10 ml of drug solution prepared at a concentration of 1 and 0.1 mcg/ml; the disks were allowed to air dry. They were then applied to the surface of microorganism-seeded agar assay trays, which contained the bacterial strain Pseudomonas aeruginosa UC 95 )PA), Escherichia coli UC 51 (EC) or Staphylococcus aureus UC 80 (SA). The assay trays were incubated overnight under aerobic condition to allow for the growth of the organisms. Zones of growth inhibition due to the action of the antibiotic were then measured to the nearest millimeter.

Experiment [4] has as its system Pseudomonas aeruginosa UC 95 (PA). The experiment in a line: Dipped disk (disk-diffusion) assay, disks loaded with 0.10 ml. As to conditions: Conc 0.1 mg/ml, 0.10 ml per disk. The method, then: as §1
Experiment [5] has as its system Staphylococcus aureus UC 80 (SA). Described as above. As to conditions: 0.10 ml per disk. The method, then: as §1
For experiment [6], the system named is Escherichia coli UC 51 (EC). The experiment in a line: Dip disk (disk-diffusion) assay, disks loaded with 0.05 ml. As to conditions: 0.05 ml per disk; for Growth Inhibition Zone, EC / zone of inhibition at 0.1 µg/mL: 0.1 mcg/ml; for zone of inhibition at 0.1 µg/mL / zone of inhibition at 1 µg/mL: Escherichia coli, UC51, read-out: Growth Inhibition zone, EC; for zone of inhibition at 1 µg/mL: 1.0 mcg/ml. As for the experimental part:
(§2) The effectiveness of the subject compounds on bacteria were obtained by performing a dip disk assay. The antibacterial activity of the compounds was determined by the disk-diffusion method. Paper disks (12.7 mm) were loaded with 0.05 ml of drug solution prepared at a concentration of 0.1 mcg/ml; the disks were allowed to air dry. They were then applied to the surface of microorganism-seeded agar assay trays, which contained the bacterial strain Pseudomonas aeruginosa UC 95 (PA), Escherichia coli UC 51 (EC), Klebsiella pneumoniae UC 57 (KP), or Staphylococcus aureus UC 80 (SA). The assay trays were incubated overnight under aerobic condition to allow for the growth of the organisms. Zones of growth inhibition due to the action of the antibiotic were then measured to the nearest millimeter.
(§3) The effectiveness of additional compounds 5-9, (5-7 are Formula IAa compounds and 8 and 9 are Formula IAb compounds) on bacteria were obtained by performing a dip disk assay as described above. The antibacterial activity of the compounds was determined by the disk-diffusion method where the disks were loaded with 0.05 ml of drug solution prepared at a concentration of 1.0 mcg/ml; the disks were allowed to air dry.

Experiment [7] deals with Pseudomonas aeruginosa UC 95 (PA). Described as above. Conditions: 0.05 ml per disk; for Growth Inhibition zone, PA / zone of inhibition at 0.1 µg/mL: 0.1 mcg/ml; for zone of inhibition at 0.1 µg/mL / zone of inhibition at 1 µg/mL: Pseudomonas aeruginosa, UC95, read-out: Growth Inhibition zone, PA; for zone of inhibition at 1 µg/mL: 1.0 mcg/ml. As for the experimental part:
as §2, §3

Experiment [8] deals with Staphylococcus aureus UC 80 (SA). The description is as above. As to conditions: 0.05 ml per disk; for Growth Inhibition Zone, SA / zone of inhibition at 0.1 µg/mL: 0.1 mcg/ml; for zone of inhibition at 0.1 µg/mL / zone of inhibition at 1 µg/mL: Staphylococcus aureus, UC80, read-out: Growth Inhibition zone, SA; for zone of inhibition at 1 µg/mL: 1.0 mcg/ml. As for the experimental part:
as §2, §3

For experiment [9], the system named is gram negative and positive. The experiment in a line: Compound 10 compared to ciprofloxacin, overall activity. As to conditions: compared with ciprofloxacin.

The text below walks through data of patent US5262417A, “Antibacterial quinolone compounds” (The Upjohn Company, priority 1991, dated 1993).

Turning to “2-[4-(1-Cyclopropyl-3-carboxy-6,8-difluoro-1,4-dihydro-4-oxo-7-quinolinyl)-1-piperazinyl]2-butenedioic acid, dimethyl ester [Compound 1]”, the “Growth Inhibition zone, KP” value in experiment [1] was determined as 31 millimeter. For the same compound, the entries for the “Growth Inhibition Zone, EC” value in experiment [2] (Conc 0.1 mg/ml), in experiment [2] (Conc 1 mg/ml) and in experiment [6] were 30 mm, 35 mm and 31 millimeter, respectively. For the same compound, in experiment [3], the “gram negative and positive activity (in words)” value was “potent gram negative and positive activity as compared to the commercially available antibacterial Ciprofloxacin”. The “Growth Inhibition zone, PA” value in experiment [4] stood at 35 mm; in experiment [7] it was 36 millimeter. In addition, the “Growth Inhibition Zone, SA” value stood at 25 mm in experiment [5] (Conc 0.1 mg/ml), 28 mm in [5] (Conc 1 mg/ml) and 27 millimeter in experiment [8].

Regarding “2-[4-(1-Ethyl-3-carboxy-6-fluoro-1,4-dihydro-4-oxo-7-quinolinyl)-1-piperizinyl]2-butanedioic acid, dimethyl ester [Compound 2]”, the “Growth Inhibition zone, KP” value in experiment [1] turned out to be 25 millimeter. For the same compound, the “Growth Inhibition Zone, EC” value in [2] (Conc 0.1 mg/ml) was 30 mm; in [2] (Conc 1 mg/ml), 30 mm; in experiment [6], 23 millimeter. In addition, the “gram negative and positive activity (in words)” value in experiment [3] is “potent gram negative and positive activity as compared to the commercially available antibacterial Ciprofloxacin”. Also, the “Growth Inhibition zone, PA” value is given as 35 mm in experiment [4] and 25 millimeter in experiment [7]. Further, the “Growth Inhibition Zone, SA” value in [5] (Conc 0.1 mg/ml) stood at 25 mm; in [5] (Conc 1 mg/ml), 28 mm; in [8], 21 millimeter.

For `COC(=O)C=C(C(=O)OC)N1CCN(c2cc3c(cc2F)c(=O)c(C(=O)O)cn3C2CC2)CC1` [Compound 3, 2-[4-(1-Cyclopropyl-3-carboxy-6-fluoro-1,4-dihydro-4-oxo-7-quinolinyl)-1-piperazinyl]2-butenedioic acid, dimethyl ester], the zone of inhibition at 0.1 µg/mL in experiment [1] amounted to 29 mm; in experiment [6], 29 mm; in experiment [7], 36 mm; in experiment [8] it was 25 mm.

On to `COC(=O)C/C=C(\C(=O)OC)N1CCN(c2c(F)cc3c(=O)c(C(=O)O)cn(C4CC4)c3c2F)CC1` [Compound 4, 2-[4-(3-carboxy-1-cyclopropyl-6,8-difluoro-1,4-dihydro-4-oxo-4-oxo-7-quinolinyl)-1-piperazineyl]-2-pentenedioic acid-(E)-1,5-dimethyl ester], for which the zone of inhibition at 0.1 µg/mL in [1] came out at 33 mm; in [6], 27 mm; in experiment [7], 33 mm; in experiment [8], 28 mm.

Consider `COC(=O)/C=C(\C(=O)OC)N1CCN(c2c(F)c(N)c3c(=O)c(C(=O)O)cn(C4CC4)c3c2F)CC1` [Compound 5, 2-[4-(5-amino-3-carboxy-1-cyclopropyl-6,8-difluoro-1,4-dihydro-4-oxo-7-quinolinyl)-1-piperazinyl]-2-butenedioic acid, (E)-1,4-dimethyl ester], for which the zone of inhibition at 1 µg/mL in experiment [1] was found to be 28 mm; in experiment [6], 24 mm; in [7], 27 mm; in [8], 27 mm.

With `COC(=O)/C=C(\C(=O)OC)N1CCN(c2c(F)cc3c(=O)c(C(=O)O)cn(C4CCC4)c3c2F)CC1` [Compound 6, 2-[4-(3-carboxy-1-cyclobutyl-6,8-difluuoro-1,4-dihydro-4-oxo-7-quinolinyl)-1-piperazinyl]-2-butenedioic acid (E)-1,4-dimethyl ester], the zone of inhibition at 1 µg/mL in [1] was found to be 26 mm; in experiment [6], 24 mm; in [7] it was 16 mm; in experiment [8], 22 mm.

As for `COC(=O)/C=C(\C(=O)OC)N1CCN(c2c(F)cc3c(=O)c(C(=O)O)cn(-c4ccc(F)cc4)c3c2F)CC1` [Compound 7], the zone of inhibition at 1 µg/mL came out at 26 mm in experiment [1], 24 mm in experiment [6], 15 mm in experiment [7] and 22 mm in experiment [8].

For `COC(=O)/C=C(/NC1CCN(c2c(F)cc3c(=O)c(C(=O)O)cn(-c4ccc(F)cc4F)c3c2F)C1)C(=O)OC` (stereo not shown) [Compound 8, 2-[4-(3-carboxy-1-benzene(2,4-difluoro)-1,4-dihydro-4-oxo-7-quinolinyl)-1-(3-aminopyrrolidinyl)]-2-butenedioic acid, (E)-1,4-dimethyl ester], the zone of inhibition at 1 µg/mL in experiment [1] came out at 34 mm; in [6] it was 30 mm; in experiment [7], 28 mm; in experiment [8], 32 mm.

`COC(=O)/C=C(\C)NC1CCN(c2c(F)cc3c(=O)c(C(=O)O)cn(C4CC4)c3c2F)C1` (stereo not shown) [Compound 9, 2-[4-(3-carboxy-1-cyclopropyl-6,8-difluoro-1,4-dihydro-4-oxo-7-quinolinyl)-1-(3-aminopyrrolidinyl)]-3-butenoic acid-(E)-1-methyl ester]: the zone of inhibition at 1 µg/mL in experiment [1] worked out at 26 mm; in experiment [6] it was 24 mm; in experiment [7], 32 mm; in [8], 23 mm.

On to `COC(=O)/C=C(/NC1CCN(c2c(F)cc3c(=O)c(C(=O)O)cn(C4CC4)c3c2F)C1)C(=O)OC` (stereo not shown) [Compound 10, 2-[4-(3-carboxy-1-cyclopropyl-6,8-difluoro-1,4-dihydro-4-oxo-7-quinolinyl)-1-(3-aminopyrrolidinyl)]-2-butenedioic acid-(E)-1,4-dimethyl ester], for which the “gram negative and positive activity (in words)” value in experiment [9] was “gram negative and positive activity greatly increased over that of ciprofloxacin”.
